The target in experiment [1] is T1, Bromodomain-containing protein 4 (Homo sapiens, UniProt O60885). Kind of experiment: Inhibition of recombinant BRD4 (unknown origin) at 0.5 uM incubated for 120 mins by TR-FRET assay relative to control. On the technique in general: TR-FRET usually uses a lanthanide donor and a delayed reading to cut background.
The target in experiment [2] is Poly [ADP-ribose] polymerase 1 (Homo sapiens, UniProt P09874). Nature of the experiment: Inhibition of PARP1 (unknown origin) incubated for 45 mins in presence of biotinylated-NAD+ by microplate reader analysis.
Poly [ADP-ribose] polymerase 1, sequence (P09874 whole entry): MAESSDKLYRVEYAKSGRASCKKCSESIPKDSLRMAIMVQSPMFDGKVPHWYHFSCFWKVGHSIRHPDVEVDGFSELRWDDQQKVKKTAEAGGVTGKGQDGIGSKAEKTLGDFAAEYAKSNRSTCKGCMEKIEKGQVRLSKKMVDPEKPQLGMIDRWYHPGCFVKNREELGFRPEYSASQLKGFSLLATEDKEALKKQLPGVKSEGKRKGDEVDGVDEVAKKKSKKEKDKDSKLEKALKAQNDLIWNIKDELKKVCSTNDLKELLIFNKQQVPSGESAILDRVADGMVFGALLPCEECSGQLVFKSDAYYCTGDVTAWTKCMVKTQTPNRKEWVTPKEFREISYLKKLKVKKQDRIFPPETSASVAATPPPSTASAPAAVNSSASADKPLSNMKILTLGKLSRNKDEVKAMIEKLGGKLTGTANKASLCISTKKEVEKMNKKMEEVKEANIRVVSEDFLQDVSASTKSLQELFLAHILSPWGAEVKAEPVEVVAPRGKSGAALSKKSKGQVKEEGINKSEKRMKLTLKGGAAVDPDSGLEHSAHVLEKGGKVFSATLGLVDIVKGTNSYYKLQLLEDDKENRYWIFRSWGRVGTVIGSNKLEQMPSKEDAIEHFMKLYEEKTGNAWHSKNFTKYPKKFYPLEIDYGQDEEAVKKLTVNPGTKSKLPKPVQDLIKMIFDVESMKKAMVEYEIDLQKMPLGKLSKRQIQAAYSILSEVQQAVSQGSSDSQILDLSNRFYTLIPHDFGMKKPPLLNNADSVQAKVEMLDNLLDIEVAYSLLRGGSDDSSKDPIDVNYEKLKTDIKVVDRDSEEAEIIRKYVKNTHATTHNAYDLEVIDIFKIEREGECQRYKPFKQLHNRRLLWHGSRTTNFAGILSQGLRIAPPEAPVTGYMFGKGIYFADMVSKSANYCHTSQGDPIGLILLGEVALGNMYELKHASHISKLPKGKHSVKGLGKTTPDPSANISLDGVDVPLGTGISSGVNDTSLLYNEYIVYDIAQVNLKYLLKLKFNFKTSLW
A further experiment relates to MDA-MB-231. Kind of experiment: Antiproliferative activity against human MDA-MB-231 cells assessed as reduction in cell viability after 7 days. Type of experiment: functional, cell-based. Particulars: MDA-MB-231, 168 h.
In another experiment the test system is SW1990. Kind of experiment: Antiproliferative activity against human SW1990 cells assessed as reduction in cell viability after 4 days by MTT assay. Type of experiment: functional, cell-based. Particulars: SW1990, 96 h.
For experiment [3], the target named is T1, Bromodomain-containing protein 4. Nature of the experiment: Inhibition of recombinant BRD4 (unknown origin) incubated for 120 mins by TR-FRET assay.

The structures appear in SMILES notation.

What is called inhibition is the percentage by which the read-out fell short of the control. As a reminder, the IC50 is the midpoint of a concentration-inhibition curve. Take `CC[C@@H]1C(=O)N(C)c2cnc(Nc3ccc(-c4nc5c(C(N)=O)cccc5[nH]4)cc3OC(C)C)nc2N1C1CCCC1`: the inhibition in experiment [1] came to 75%. In addition, in experiment [2], the IC50 was determined as 2.05 µM.
On the same counts, the results for `CC[C@@H]1C(=O)N(C)c2cnc(Nc3ccc(-c4nc5c(C(N)=O)cccc5[nH]4)cc3OC3CCCC3)nc2N1C1CCCC1` are 47% and 1.82 µM.
As for `CC[C@@H]1C(=O)N(C)c2cnc(Nc3ccc(-c4nc5c(C(N)=O)cccc5[nH]4)cc3OC)nc2N1Cc1ccc(C)s1`, the IC50 stood at 1.25 µM in the experiment with MDA-MB-231, 3.74 µM in the experiment with SW1990 and 0.338 µM in experiment [2]. In addition, the inhibition in experiment [1] was 52%.
As for `CC[C@@H]1C(=O)N(C)c2cnc(Nc3ccc(-c4nc5c(C(N)=O)cccc5[nH]4)cc3OC)nc2N1C1CCCC1`, the IC50 in the experiment with MDA-MB-231 stood at 0.43 µM; in the experiment on SW1990, 2.12 µM; in experiment [2] it was 0.15 µM; in experiment [3], 0.237 µM.
On the same counts, the results for `CC[C@@H]1C(=O)N(C)c2cnc(Nc3ccc(Cc4nc5c(C(N)=O)cccc5[nH]4)cc3OC)nc2N1C1CCCC1` are 0.81 µM, 3.12 µM, 0.355 µM and 0.186 µM.
On to `CC[C@@H]1C(=O)N(C)c2cnc(Nc3ccc(-c4nc5c(C(N)=O)cccc5[nH]4)cc3OC)nc2N1Cc1ccccc1`, for which the inhibition in experiment [1] was determined as 21%. Moreover, the 50% inhibitory concentration (IC50) in experiment [2] is 0.461 µM.
Consider `COc1cc(-c2nc3c(C(N)=O)cccc3[nH]2)ccc1N(C)c1ncc2c(n1)N(C1CCCC1)[C@H](C)C(=O)N2C`, for which the IC50 with MDA-MB-231 stood at 0.46 µM; in the experiment with SW1990 it was 1.53 µM; in experiment [2], 0.025 µM; in experiment [3], 0.202 µM.
As to `CC[C@@H]1C(=O)N(C)c2cnc(Nc3ccc(C(=O)NCc4nc5c(C(N)=O)cccc5[nH]4)cc3OC)nc2N1C1CCCC1`, the half-maximal inhibitory concentration (IC50) in experiment [2] stood at 0.341 µM; in experiment [3], 0.374 µM.
As for `COc1cc(-c2nc3c(C(N)=O)cccc3[nH]2)ccc1Nc1ncc2c(n1)N(C1CCCC1)[C@H](C)C(=O)N2C`, the IC50 in the experiment with MDA-MB-231 turned out to be 0.47 µM; in the experiment with SW1990, 1.62 µM; in experiment [2], 0.127 µM; in experiment [3], 0.25 µM.

For the origin of these results see ChEMBL document CHEMBL5053549, “Discovery of Potent and Novel Dual PARP/BRD4 Inhibitors for Efficient Treatment of Pancreatic Cancer” (J Med Chem, 2021).
